Assay results: ChEMBL document CHEMBL1155899, “Cucurbitane-type triterpenoids from the stems of momordica charantia” (J Nat Prod, 2008)

These molecules were tested on SK-HEP1 (assay: Cytotoxicity against human SK-Hep1 cells by MTT assay).
Type: functional, cell-based

Structure (SMILES)	IC50 [µM]
CO[C@H]1C=C2[C@@H](CC[C@H](O)C2(C)C)[C@]2(C)CC[C@]3(C)[C@@H]([C@H](C)C/C=C/C(C)(C)O)CC[C@@]3(C)[C@H]12	> 100
C[C@H](C/C=C/C(C)(C)O)[C@H]1CC[C@@]2(C)[C@@H]3[C@@H](O)C=C4[C@@H](CC[C@H](O)C4(C)C)[C@]3(C)CC[C@]12C	> 100
CO[C@H]1C=C2[C@@H](CC[C@H](OC(C)=O)C2(C)C)[C@]2(C)CC[C@]3(C)[C@@H]([C@H](C)C/C=C/C(C)(C)O)CC[C@@]3(C)[C@H]12	> 100
C[C@H](C/C=C/C(C)(C)O)[C@H]1CC[C@@]2(C)[C@@H]3C=CC4=C(CC[C@H](O)C4(C)C)[C@]3(C)CC[C@]12C	> 100
C[C@H](C/C=C/C(C)(C)O)[C@H]1CC[C@@]2(C)[C@@H]3[C@@H](O)C=C4[C@@H](CC[C@H](O)C4(C)C)[C@]3(C=O)CC[C@]12C	98.3
COC(C)(C)/C=C/C[C@@H](C)[C@H]1CC[C@@]2(C)[C@@H]3[C@@H](O)C=C4[C@@H](CC[C@H](O)C4(C)C)[C@]3(C=O)CC[C@]12C	91.6
CO[C@H]1C=C2[C@@H](CC[C@H](O)C2(C)C)[C@]2(C)CC[C@]3(C)[C@@H]([C@H](C)C/C=C/C(C)(C)OC)CC[C@@]3(C)[C@H]12	> 100
CC(C)=CC(=O)C[C@@H](C)[C@H]1CC[C@@]2(C)[C@@H]3C(=O)C=C4[C@@H](CCC(=O)C4(C)C)[C@]3(C)CC[C@]12C	> 100
COc1cc([C@@H]2c3cc4c(cc3[C@@H](O[C@@H]3O[C@@H]5CO[C@@H](C)O[C@H]5[C@H](O)[C@H]3O)[C@H]3COC(=O)[C@H]23)OCO4)cc(OC)c1O [ETOPOSIDE]	49.6
